From ChEMBL document CHEMBL4014283, “Structural insights of SmKDAC8 inhibitors: Targeting Schistosoma epigenetics through a combined structure-based 3D QSAR, in vitro and synthesis strategy” (Bioorg Med Chem, 2017)
Active and inactive are the calls of the source. No cut-off for these calls is given here.

Experiments:
[1] = biological target: Histone deacetylase 1 (Homo sapiens, UniProt Q13547); test: (§1) Inhibition of full length human C-terminal FLAG/His-tagged KDAC1 expressed in baculovirus expression system at 30 uM using substrate A after 60 mins by microfluidic assay relative to control; settings: 1 h, 30 µM
Sequence of Histone deacetylase 1 (Q13547 whole entry, the tested form may be a part): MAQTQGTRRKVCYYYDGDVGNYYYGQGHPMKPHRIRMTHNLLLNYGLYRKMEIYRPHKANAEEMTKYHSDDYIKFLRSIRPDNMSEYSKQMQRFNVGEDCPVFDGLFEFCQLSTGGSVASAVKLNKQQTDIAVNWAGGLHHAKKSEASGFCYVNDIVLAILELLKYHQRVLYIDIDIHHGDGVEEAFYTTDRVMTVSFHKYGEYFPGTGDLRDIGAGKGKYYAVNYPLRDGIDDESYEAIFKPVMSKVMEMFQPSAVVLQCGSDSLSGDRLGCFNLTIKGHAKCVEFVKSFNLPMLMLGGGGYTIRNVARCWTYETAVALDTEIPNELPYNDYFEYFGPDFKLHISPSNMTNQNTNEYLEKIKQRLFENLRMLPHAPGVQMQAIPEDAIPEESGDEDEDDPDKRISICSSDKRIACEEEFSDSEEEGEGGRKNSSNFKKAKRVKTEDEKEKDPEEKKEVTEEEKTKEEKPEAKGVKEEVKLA

[2] = biological target: KDAC3/NCOR2 (histone deacetylase 3/nuclear receptor corepressor 2 complex) (Homo sapiens, UniProt O15379); test: (§2) Inhibition of full length human C-terminal His-tagged KDAC3/N-terminal GST-tagged human NCOR2 (395 to 489 residues) expressed in baculovirus expression system at 30 uM using FITC-p53 acetylated peptide as substrate after 60 mins by microfluidic assay; settings: probe FITC-p53 acetylated peptide
Sequence of KDAC3/NCOR2 (histone deacetylase 3/nuclear receptor corepressor 2 complex) (O15379 whole entry, the tested form may be a part): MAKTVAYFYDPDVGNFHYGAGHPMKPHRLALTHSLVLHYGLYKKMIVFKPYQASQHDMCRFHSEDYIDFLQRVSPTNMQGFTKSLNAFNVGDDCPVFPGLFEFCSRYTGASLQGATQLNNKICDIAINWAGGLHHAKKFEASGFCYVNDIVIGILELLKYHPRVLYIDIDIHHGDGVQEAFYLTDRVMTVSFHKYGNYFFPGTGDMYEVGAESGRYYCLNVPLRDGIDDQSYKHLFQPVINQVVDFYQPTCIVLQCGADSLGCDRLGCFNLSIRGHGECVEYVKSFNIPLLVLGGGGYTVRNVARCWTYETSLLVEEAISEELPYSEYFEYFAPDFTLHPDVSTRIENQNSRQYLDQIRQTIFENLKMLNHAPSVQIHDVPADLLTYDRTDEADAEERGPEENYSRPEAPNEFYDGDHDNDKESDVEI
Sequence of KDAC3/NCOR2 (histone deacetylase 3/nuclear receptor corepressor 2 complex) (Q9Y618 whole entry, further chain, the tested form may be a part): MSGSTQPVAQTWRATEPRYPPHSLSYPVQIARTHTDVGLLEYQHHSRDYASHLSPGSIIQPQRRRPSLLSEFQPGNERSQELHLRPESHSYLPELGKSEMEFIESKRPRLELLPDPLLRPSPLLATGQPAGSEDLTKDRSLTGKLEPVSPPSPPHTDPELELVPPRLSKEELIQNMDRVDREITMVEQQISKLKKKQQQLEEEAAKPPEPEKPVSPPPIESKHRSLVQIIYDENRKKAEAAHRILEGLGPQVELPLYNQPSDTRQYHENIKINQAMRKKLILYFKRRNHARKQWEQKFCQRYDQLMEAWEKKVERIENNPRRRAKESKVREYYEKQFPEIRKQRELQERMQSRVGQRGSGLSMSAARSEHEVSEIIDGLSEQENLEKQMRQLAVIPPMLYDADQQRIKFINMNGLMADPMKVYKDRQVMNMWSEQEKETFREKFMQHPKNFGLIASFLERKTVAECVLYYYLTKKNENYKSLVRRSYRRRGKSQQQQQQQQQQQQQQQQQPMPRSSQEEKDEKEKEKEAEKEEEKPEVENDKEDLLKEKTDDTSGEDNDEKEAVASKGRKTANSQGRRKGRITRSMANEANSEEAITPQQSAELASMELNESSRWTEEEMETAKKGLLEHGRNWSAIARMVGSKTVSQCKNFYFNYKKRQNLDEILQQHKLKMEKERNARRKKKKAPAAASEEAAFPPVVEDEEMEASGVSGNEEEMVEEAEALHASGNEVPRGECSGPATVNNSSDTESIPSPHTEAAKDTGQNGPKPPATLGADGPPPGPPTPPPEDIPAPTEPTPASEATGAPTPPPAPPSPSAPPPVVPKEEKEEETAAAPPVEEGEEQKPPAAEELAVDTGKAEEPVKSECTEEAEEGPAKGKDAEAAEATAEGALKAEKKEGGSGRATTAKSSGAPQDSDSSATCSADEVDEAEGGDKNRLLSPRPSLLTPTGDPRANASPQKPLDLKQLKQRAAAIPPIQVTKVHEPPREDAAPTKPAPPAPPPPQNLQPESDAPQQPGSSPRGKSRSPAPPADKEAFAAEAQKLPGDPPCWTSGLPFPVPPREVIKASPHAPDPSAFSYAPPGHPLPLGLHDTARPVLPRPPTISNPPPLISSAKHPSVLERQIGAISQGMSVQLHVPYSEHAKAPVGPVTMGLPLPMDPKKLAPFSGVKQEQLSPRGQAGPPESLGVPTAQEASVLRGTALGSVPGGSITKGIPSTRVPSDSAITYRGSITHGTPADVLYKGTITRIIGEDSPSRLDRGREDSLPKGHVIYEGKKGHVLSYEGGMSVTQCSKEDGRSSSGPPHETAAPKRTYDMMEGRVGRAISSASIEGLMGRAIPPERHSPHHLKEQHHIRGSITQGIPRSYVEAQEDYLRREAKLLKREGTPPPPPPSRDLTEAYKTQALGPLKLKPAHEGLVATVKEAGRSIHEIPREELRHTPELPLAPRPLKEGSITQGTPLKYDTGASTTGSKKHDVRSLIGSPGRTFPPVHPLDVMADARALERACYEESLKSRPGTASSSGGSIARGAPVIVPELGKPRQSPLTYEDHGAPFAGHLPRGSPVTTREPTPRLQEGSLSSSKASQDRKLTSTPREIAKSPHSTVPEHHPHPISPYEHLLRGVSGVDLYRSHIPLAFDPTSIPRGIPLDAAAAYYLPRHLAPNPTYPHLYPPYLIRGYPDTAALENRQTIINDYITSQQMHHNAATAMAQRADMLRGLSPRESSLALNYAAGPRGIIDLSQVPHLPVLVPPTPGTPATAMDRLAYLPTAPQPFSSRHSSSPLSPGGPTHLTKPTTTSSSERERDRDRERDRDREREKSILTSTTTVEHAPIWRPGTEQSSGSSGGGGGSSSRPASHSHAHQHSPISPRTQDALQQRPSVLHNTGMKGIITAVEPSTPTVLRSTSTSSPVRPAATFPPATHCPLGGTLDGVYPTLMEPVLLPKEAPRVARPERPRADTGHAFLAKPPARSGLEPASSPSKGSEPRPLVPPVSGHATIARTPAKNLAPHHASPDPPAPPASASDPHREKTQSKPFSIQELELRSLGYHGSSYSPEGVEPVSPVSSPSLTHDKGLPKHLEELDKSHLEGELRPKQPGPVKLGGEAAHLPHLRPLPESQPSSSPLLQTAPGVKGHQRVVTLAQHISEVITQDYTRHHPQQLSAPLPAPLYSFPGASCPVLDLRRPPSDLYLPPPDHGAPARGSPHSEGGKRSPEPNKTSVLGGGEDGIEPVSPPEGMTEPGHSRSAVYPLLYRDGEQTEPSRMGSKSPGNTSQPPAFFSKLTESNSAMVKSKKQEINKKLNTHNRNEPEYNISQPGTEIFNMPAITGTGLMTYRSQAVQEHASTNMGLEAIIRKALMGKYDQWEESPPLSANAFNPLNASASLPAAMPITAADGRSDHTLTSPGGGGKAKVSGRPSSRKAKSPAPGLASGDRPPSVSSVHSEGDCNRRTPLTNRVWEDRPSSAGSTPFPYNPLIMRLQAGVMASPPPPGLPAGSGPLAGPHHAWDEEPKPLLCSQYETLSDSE

[3] = biological target: T1, KDAC6 (protein deacetylase HDAC6) (Homo sapiens, UniProt Q9UBN7); test: (§3) Inhibition of human KDAC6 expressed in baculovirus expression system at 30 uM using FITC-Histone 4 acetylated peptide as substrate after 60 mins by microfluidic assay; settings: probe FITC-Histone 4 acetylated peptide
T1 sequence (Q9UBN7 whole entry): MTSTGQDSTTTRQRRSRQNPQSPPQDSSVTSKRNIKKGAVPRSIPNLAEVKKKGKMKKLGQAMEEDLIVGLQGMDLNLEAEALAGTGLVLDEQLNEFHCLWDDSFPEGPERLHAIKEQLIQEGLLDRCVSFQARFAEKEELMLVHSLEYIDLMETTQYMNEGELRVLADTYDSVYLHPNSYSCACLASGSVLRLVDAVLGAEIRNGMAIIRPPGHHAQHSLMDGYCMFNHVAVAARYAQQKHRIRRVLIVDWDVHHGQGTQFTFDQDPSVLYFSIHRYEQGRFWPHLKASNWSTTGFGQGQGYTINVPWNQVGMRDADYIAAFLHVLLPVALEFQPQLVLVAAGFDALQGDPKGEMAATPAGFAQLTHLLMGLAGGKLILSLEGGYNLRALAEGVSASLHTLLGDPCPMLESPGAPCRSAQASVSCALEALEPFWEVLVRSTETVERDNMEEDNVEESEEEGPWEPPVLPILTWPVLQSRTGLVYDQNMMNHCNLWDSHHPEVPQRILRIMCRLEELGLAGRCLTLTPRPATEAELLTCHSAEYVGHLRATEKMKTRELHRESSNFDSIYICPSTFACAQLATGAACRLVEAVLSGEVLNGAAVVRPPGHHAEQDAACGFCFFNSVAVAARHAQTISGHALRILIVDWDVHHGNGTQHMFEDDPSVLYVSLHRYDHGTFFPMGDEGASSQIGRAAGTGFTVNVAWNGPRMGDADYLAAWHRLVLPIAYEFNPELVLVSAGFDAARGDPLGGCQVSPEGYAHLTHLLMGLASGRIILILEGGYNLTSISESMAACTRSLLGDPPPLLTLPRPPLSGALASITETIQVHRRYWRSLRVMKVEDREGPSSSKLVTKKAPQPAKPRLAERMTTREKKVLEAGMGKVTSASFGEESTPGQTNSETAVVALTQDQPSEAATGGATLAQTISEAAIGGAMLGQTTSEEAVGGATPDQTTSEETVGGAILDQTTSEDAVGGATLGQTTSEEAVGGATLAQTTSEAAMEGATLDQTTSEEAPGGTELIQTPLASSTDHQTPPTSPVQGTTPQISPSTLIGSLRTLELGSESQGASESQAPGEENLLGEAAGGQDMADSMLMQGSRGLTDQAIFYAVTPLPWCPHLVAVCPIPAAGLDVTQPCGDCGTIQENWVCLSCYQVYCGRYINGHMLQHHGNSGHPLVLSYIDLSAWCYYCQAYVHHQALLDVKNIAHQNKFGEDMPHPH

[4] = biological target: T2, KDAC8 (histone deacetylase 8) (Homo sapiens, UniProt Q9BY41); test: (§4) Inhibition of full length human C-terminal His-tagged KDAC8 expressed in baculovirus expression system at 30 uM using (FAM)-labeled peptide as substrate after 60 mins by microfluidic assay relative to control; settings: probe (FAM)-labeled peptide
T2 sequence (Q9BY41 whole entry): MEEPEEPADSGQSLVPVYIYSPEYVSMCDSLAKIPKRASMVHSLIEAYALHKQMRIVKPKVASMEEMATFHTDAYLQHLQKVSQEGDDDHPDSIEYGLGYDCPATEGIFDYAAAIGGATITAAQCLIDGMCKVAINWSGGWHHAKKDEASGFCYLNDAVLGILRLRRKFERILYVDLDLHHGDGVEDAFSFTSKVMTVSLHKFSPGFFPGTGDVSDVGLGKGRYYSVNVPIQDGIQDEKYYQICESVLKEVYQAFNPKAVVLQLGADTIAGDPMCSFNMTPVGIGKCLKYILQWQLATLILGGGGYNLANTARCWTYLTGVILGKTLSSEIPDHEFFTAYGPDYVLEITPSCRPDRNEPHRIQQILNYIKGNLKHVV

[5] = biological target: T3, Histone deacetylase 8 (Schistosoma mansoni) (UniProt A5H660); test: Inhibition of Schistosoma mansoni KDAC8 at 30 uM using (FAM)-labeled peptide as substrate after 60 mins by microfluidic assay
T3 sequence (whole entry): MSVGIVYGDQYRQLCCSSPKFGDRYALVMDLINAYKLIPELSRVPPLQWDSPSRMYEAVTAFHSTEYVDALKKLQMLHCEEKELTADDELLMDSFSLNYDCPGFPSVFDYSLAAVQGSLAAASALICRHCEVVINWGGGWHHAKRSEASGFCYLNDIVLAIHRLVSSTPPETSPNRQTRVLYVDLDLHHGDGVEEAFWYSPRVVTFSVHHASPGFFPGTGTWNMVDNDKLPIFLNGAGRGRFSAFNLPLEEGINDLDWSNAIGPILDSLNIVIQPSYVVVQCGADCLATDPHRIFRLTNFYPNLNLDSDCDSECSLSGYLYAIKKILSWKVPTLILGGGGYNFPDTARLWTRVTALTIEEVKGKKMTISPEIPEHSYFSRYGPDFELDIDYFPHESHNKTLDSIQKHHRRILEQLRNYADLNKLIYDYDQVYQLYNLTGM

[6] = biological target: Histone deacetylase 3/Nuclear receptor corepressor 2 (HDAC3/NCoR2) (Homo sapiens, UniProt O15379+Q9Y618); test: as §2; settings: 1 h, 30 µM
Sequence of Histone deacetylase 3/Nuclear receptor corepressor 2 (HDAC3/NCoR2) (O15379 whole entry): as the sequence (O15379 whole entry, the tested form may be a part) above
Sequence of Histone deacetylase 3/Nuclear receptor corepressor 2 (HDAC3/NCoR2) (Q9Y618 whole entry): as the sequence (Q9Y618 whole entry, further chain, the tested form may be a part) above

[7] = biological target: T4, Protein deacetylase HDAC6 (Homo sapiens, UniProt Q9UBN7); test: as §3; settings: 1 h, 30 µM
T4 sequence (Q9UBN7 whole entry): T1 sequence (Q9UBN7 whole entry)

[8] = biological target: T5, Histone deacetylase 8 (Homo sapiens, UniProt Q9BY41); test: as §4; settings: 1 h, 30 µM
T5 sequence (Q9BY41 whole entry): T2 sequence (Q9BY41 whole entry)

[9] = biological target: KDAC1 (histone deacetylase 1) (Homo sapiens, UniProt Q13547); test: as §1; settings: probe substrate A
Sequence of KDAC1 (histone deacetylase 1) (Q13547 whole entry): as the sequence (Q13547 whole entry, the tested form may be a part) above

| SMILES | inhibition (INH) [1] | inhibition at 1 h, 30 µM [2] [%] | inhibition at 1 h, 30 µM [3] [%] | inhibition at 1 h, 30 µM [4] [%] | inhibition [5] | inhibition (INH) [6] | inhibition (INH) [7] | inhibition (INH) [8] | inhibition at 1 h, 30 µM [9] [%] |
| --- | --- | --- | --- | --- | --- | --- | --- | --- | --- |
| O=C1Nc2cc(Cl)c(Cl)cc2S(=O)(=O)N1O | Not Active | 0.8 | 12.3 | 23.5 | inactive | – | – | – | – |
| CCOC(=O)Nc1ccc2nc(N3CCCCCC3)sc2c1 | Not Active | – | – | 6 | 5% | Not Active | Not Active | – | – |
| COC(=O)CC1(C(=O)OC)Nc2cc(Cl)c(Cl)cc2S(=O)(=O)N1 (stereo not given) | Not Active | 6 | 3 | 17 | 37% | – | – | – | – |
| CC1(C)[C@H]2CC[C@H](CNC(=N)CSS(=O)(=O)O)[C@@H]1C2 | Not Active | – | 9 | – | inactive | Not Active | – | Not Active | – |
| O=[N+]([O-])c1c(N2CCN(CCO)CC2)nc2ccccn12 | Not Active | – | 1 | 31 | 2% | Not Active | – | – | – |
| FC(F)(F)c1cccc(OCC2CN=C(S)O2)c1 (stereo not given) | – | 6 | 3 | 16 | 2% | – | – | – | 2 |
| S=C(SCc1cc(Cl)cc2c1OCOC2)N1CCSCC1 | Not Active | – | – | 4 | inactive | Not Active | Not Active | – | – |
| CCOC(=O)c1[nH]c(C(=O)O)c(OC(=O)CC)c1C | – | – | – | – | inactive | Not Active | Not Active | Not Active | 5 |
| Nc1cc(Cl)c(Cl)cc1S(=O)(=O)NO | Not Active | 6.7 | 3.7 | 10.4 | 8.43% | – | – | – | – |
| CSc1nc(O)nnc1Sc1ccccc1 | Not Active | 24 | 20 | – | inactive | – | – | Not Active | – |
| CCOC(=O)CSc1nc2nc(Cl)c(Cl)[nH]c-2n1 | Not Active | 9 | 21 | – | inactive | – | – | Not Active | – |
| CSC1=NC=C(C#N)C2=NC(c3ccc(Cl)cc3)NN12 (stereo not given) | Not Active | 8 | 3 | – | inactive | – | – | Not Active | – |
| O=C1CSC(=S)N1/N=C/c1c[nH]c2ccc(Br)cc12 | Not Active | 10 | 18 | – | inactive | – | – | Not Active | – |
| CCOC(=O)c1cc2c(OC)c(OC)ccc2c2ncc(C#N)c(O)c12 | Not Active | 2 | – | 15 | inactive | – | Not Active | – | – |

The remaining lines, values ahead:

| inhibition (INH) [1] | inhibition at 1 h, 30 µM [2] [%] | inhibition at 1 h, 30 µM [3] [%] | inhibition at 1 h, 30 µM [4] [%] | inhibition [5] | inhibition (INH) [6] | inhibition (INH) [7] | inhibition (INH) [8] | inhibition at 1 h, 30 µM [9] [%] | SMILES |
| --- | --- | --- | --- | --- | --- | --- | --- | --- | --- |
| Not Active | – | 1 | – | 1% | Not Active | – | Not Active | – | Nc1ccccc1SC1CC(=O)N(c2ccccc2Cl)C1=O (stereo not given) |
| Not Active | – | 3 | 19 | inactive | Not Active | – | – | – | Cc1cc(OCCCCOc2ccc(C#N)cc2)ccc1[N+](=O)[O-] |
| – | 1 | 3 | 19 | inactive | – | – | – | 2 | O=C(O)Cc1ccc(/N=N/c2c(O)c(C(=O)O)cc3ccccc23)cc1 |
| – | 1 | 2 | 3 | 1% | – | – | – | 2 | CCOC(=O)Cc1cc(=O)[nH]n(-c2ccccc2)c1=O |
| – | 10 | – | – | inactive | – | Not Active | Not Active | 3 | O=C(Nc1cccc([N+](=O)[O-])c1)c1ccc2ccccc2c1O |
| Not Active | – | – | 4 | 2% | Not Active | Not Active | – | – | Cc1cc(C)n(C(=N)NC(=O)c2ccc([N+](=O)[O-])cc2)n1 |
| – | 6 | – | – | inactive | – | Not Active | Not Active | 1 | CC1=NN(c2ccccc2)C(=O)C1/N=N/c1ccc(S(N)(=O)=O)cc1 (stereo not given) |
| – | 7 | – | – | inactive | – | Not Active | Not Active | 1 | CCOC(=O)C(Cc1ccc(O)cc1)Nc1nc2ccccc2o1 (stereo not given) |
| Not Active | 9 | 7 | 24 | 13% | – | – | – | – | COc1ccc([N+](=O)[O-])cc1NS(=O)(=O)c1ccc(C)cc1 |
| Not Active | 7 | – | 7 | 16% | – | Not Active | – | – | O=C(NCc1ccco1)Nc1cccc([N+](=O)[O-])c1 |
| – | 1 | – | – | 9% | – | Not Active | Not Active | 3 | CC1=CC(C)(C)N=C(S)N1c1cccc2cc(S(=O)(=O)O)ccc12 |
